In patent publication US8415359B2, “Phenylpyrrole derivative” (Daiichi Sankyo Company, Limited, priority 2008, dated 2013):

biological target: T1, human pancreatic GK (human glucokinase variant 1, GST-fused protein) (Homo sapiens, UniProt P35557); experiment: GK activity test (GK activation rate); assay type: biochemical; details: test compound 1 μM; glucose 5 mM; 30 min at room temperature; absorbance at 340 nm with test compound / without test compound
T1 construct: made in house; host or cells: Escherichia coli (such as BL21 or JM109)
T1 sequence (P35557 1-465): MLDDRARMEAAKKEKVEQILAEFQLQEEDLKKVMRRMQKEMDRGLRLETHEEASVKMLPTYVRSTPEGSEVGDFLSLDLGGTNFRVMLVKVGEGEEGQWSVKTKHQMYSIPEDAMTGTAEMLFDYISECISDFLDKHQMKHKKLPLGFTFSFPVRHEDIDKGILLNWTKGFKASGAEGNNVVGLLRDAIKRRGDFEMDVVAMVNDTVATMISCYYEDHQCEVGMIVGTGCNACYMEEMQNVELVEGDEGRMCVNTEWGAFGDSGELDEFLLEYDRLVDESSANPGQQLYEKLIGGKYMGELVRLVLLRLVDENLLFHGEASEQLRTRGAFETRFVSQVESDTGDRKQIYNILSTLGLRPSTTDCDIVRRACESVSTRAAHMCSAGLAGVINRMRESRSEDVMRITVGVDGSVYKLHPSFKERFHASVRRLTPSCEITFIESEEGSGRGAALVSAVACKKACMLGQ
Protocol: cDNA encoding human pancreatic GK polypeptide (GenBank Accession No. NM_000162, human glucokinase variant 1) was cloned from a human cDNA library by polymerase chain reaction (PCR), and introduced into a glutathione S-transferase (GST)-fused protein expression vector (GEX4T, GE Healthcare Bioscience). The vector was introduced into Escherichia coli (such as BL21 or JM109, Invitrogen), and the transformed E. coli was cultured overnight at 37° C. followed by recovery of the cells. After freezing and thawing the recovered cells, the cells were suspended in phosphate buffer containing Triton-X at a final concentration of 1% followed by disrupting the cells with an ultrasonic homogenizer. The supernatant obtained by low-speed centrifugation treatment of the homogenate (10,000×g, 30 minutes) was further subjected to high-speed centrifugation (100,000×g, 10 minutes) followed by recovering the supernatant and purifying the fused protein using a GST fused protein purification system (Bulk GST Purification Module, GE Healthcare Bioscience). The GK fused protein was divided into smaller aliquots and stored at −80° C.
GK activity was measured using the GK purified in (1) above. More specifically, an enzyme solution was prepared by adding the purified GK of (1) above and glucose-6-phosphate dehydrogenase (Sigma) to solution 1 of a glucose assay kit (D-Glucose UV Method, Roche Diagnostics). The enzyme solution, a test compound diluent and glucose (final concentration: 5 mM) were mixed in a 96-well ELISA plate, and allowed to react for 30 minutes at room temperature. Following completion of the reaction, absorbance at a wavelength of 340 nm was measured using SpectraMax Plus (Molecular Probe). Furthermore, unreacted (when glucose was not added) absorbance was used for the background.
GK activation rates were indicated with values represented by the following numerical formula: (absorbance after reacting for 30 minutes when test compound added)/(absorbance after reacting for 30 minutes when test compound not added).

Compound	GK Activation Rate
C[C@H]1CN=C(c2ccc(-c3cc(Oc4cnc(S(C)(=O)=O)cn4)cc(O[C@@H](C)CO)c3)[nH]2)O1 [Example 100, (2S)-2-(3-{5-[(5S)-5-Methyl-4,5-dihydro-1,3-oxazol-2-yl]-1H-pyrrol-2-yl}-5-{[5-(methylsulfonyl)pyrazin-2-yl]oxy}phenoxy)propan-1-ol]	1.9
COC[C@H](C)Oc1cc(Oc2cnc(S(C)(=O)=O)cn2)cc(-c2ccc(C3=N[C@H](CO)[C@H](C)O3)[nH]2)c1 [Example 110, {(4R,5S)-2-[5-(3-{[(2S)-1-Methoxypropan-2-yl]oxy}-5-{[5-(methylsulfonyl)pyrazin-2-yl]oxy}phenyl)-1H-pyrrol-2-yl]-5-methyl-4,5-dihydro-1,3-oxazol-4-yl}methanol]	2.4
COC[C@H](C)Oc1cc(Oc2cnc(S(C)(=O)=O)cn2)cc(-c2ccc(C3=NC[C@H](CO)O3)[nH]2)c1 [Example 101, {(5R)-2-[5-(3-[(1S)-2-Methoxy-1-methylethoxy]-5-{[5-(methylsulfonyl)pyrazin-2-yl]oxy}phenyl)-1H-pyrrol-2-yl]-4,5-dihydro-1,3-oxazol-5-yl}methanol]	1.9

More lines, now with the values ahead:

GK Activation Rate	Compound
2.0	COC[C@H](C)Oc1cc(Oc2ccc(S(C)(=O)=O)cc2)cc(-c2ccc(C3=NCCS3)[nH]2)c1 [Example 25, 2-(5-{3-[(1S)-2-Methoxy-1-methylethoxy]-5-[4-(methylsulfonyl)phenoxy]phenyl}-1H-pyrrol-2-yl)-4,5-dihydro-1,3-thiazole]
2.4	COC[C@H](C)Oc1cc(Oc2cnc(S(C)(=O)=O)cn2)cc(-c2ccc(C3=N[C@H]([C@H](C)O)CO3)[nH]2)c1 [Example 112, (1S)-1-{(4S)-2-[5-(3-{[(25)-1-Methoxypropan-2-yl]oxy}-5-{[5-(methylsulfonyl)pyrazin-2-yl]oxy}phenyl)-1H-pyrrol-2-yl]-4,5-dihydro-1,3-oxazol-4-yl}ethanol]
2.2	Cc1nnc(-c2ccc(-c3cc(Oc4ccc(S(C)(=O)=O)nc4)cc(O[C@@H](C)CO)c3)[nH]2)o1 [Example 81, (2S)-2-(3-[5-(5-Methyl-1,3,4-oxadiazol-2-yl)-1H-pyrrol-2-yl]-5-{[6-(methylsulfonyl)pyridin-3-yl]oxy}phenoxy)propan-1-ol]
2.0	COC[C@H](C)Oc1cc(Oc2ccc(S(C)(=O)=O)cc2)cc(-c2ccc(-c3nccs3)[nH]2)c1 [Example 1, 2-(5-{3-[(1S)-2-Methoxy-1-methylethoxy]-5-[4-(methylsulfonyl)phenoxy]phenyl}-1H-pyrrol-2-yl)-1,3-thiazole]
2.7	C[C@@H]1COC(c2ccc(-c3cc(Oc4ccc(S(C)(=O)=O)nc4)cc(O[C@@H](C)CO)c3)[nH]2)=N1 [Example 84, (2S)-2-(3-{5-[(4R)-4-Methyl-4,5-dihydro-1,3-oxazol-2-yl]-1H-pyrrol-2-yl}-5-{-[6-(methylsulfonyl)pyridin-3-yl]oxy}phenoxy)propan-1-ol]
